From patent US9586961B2, “Homopiperazine derivatives as protein tyrosine kinase inhibitors and pharmaceutical use thereof” (LEO PHARMA A/S, priority 2010, dated 2017) come the findings set out here.

Common to all, as to format: biochemical
The target of one experiment is T1, JAK1 (Homo sapiens, UniProt P23458).
T1 construct: JAK1 (aa 850-1154) and TYK2 (aa 871-1187) are expressed with an N-terminally fused GST-tag; GST (N); purchased Carna Biosciences, Inc; host or cells: baculovirus expression system
T1 sequence (P23458 850-1154): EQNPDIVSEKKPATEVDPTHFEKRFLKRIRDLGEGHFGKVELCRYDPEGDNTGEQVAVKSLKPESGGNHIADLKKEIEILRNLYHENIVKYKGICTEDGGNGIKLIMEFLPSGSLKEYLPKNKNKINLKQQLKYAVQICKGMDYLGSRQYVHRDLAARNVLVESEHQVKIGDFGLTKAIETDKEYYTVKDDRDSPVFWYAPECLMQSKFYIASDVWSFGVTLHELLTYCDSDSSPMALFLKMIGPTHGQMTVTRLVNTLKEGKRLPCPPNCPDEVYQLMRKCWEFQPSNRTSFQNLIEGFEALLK
As to the kind of experiment: JAK1 kinase assay (HTRF, inhibition of phosphorylation of a synthetic peptide). The following applies: catalytic domain aa 850-1154, GST-tag; 7 μM ATP (Km); read-out: JAK1 kinase inhibitory activity (EC50). In a few lines: (§1)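 HTRF detection (streptavidin-XL665, cryptate anti-phospho antibody, overnight in the dark) after EDTA stop of a 20-30 min RT reaction on 1 μM TK substrate-biotin. Km-level ATP per kinase: 7 μM for JAK1 and 13 μM for TYK2, both N-terminal GST, with 50 nM SEB; 4 μM for JAK2 and 2 μM for JAK3, both His-tagged. Catalytic domains only; DMSO 0.75%.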
In general terms: Time-resolved FRET reads energy transfer from a long-lived donor to a nearby acceptor.

For a further experiment, the target named is T2, JAK2 (Homo sapiens, UniProt O60674).
T2 construct: All four purified enzymes contain only the catalytic domain; His (N); purchased Carna Biosciences, Inc; host or cells: baculovirus expression system
T2 sequence (O60674 849-1124 limits assumed): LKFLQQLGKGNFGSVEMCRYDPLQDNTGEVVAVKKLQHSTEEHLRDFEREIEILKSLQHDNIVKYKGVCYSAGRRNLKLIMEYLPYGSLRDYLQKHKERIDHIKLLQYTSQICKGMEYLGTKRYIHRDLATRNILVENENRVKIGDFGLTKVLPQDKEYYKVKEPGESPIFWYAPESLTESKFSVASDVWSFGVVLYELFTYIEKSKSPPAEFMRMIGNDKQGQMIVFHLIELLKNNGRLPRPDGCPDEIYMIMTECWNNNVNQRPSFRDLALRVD
As to the kind of experiment: JAK2 kinase assay (HTRF, inhibition of phosphorylation of a synthetic peptide). The following applies: catalytic domain, His-tag; 4 μM ATP (Km); read-out: JAK2 kinase inhibitory activity (EC50). In a few lines: as §1

A further experiment addresses T3, JAK3 (Homo sapiens, UniProt P52333).
T3 construct: All four purified enzymes contain only the catalytic domain; His (N); purchased Carna Biosciences, Inc; host or cells: baculovirus expression system
The experiment can be described thus: JAK3 kinase assay (HTRF, inhibition of phosphorylation of a synthetic peptide). The following applies: catalytic domain, His-tag; 2 μM ATP (Km); read-out: JAK3 kinase inhibitory activity (EC50). In a few lines: as §1

T3 sequence (P52333 822-1111 limits assumed): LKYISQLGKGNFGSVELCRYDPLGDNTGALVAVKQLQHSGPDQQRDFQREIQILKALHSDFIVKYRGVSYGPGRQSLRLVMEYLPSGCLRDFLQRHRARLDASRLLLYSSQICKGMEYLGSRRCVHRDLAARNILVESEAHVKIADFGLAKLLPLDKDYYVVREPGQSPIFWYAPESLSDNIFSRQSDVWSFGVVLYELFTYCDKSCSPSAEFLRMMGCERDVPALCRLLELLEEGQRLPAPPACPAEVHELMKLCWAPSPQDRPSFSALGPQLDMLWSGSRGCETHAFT

By EC50 is commonly meant the midpoint of the concentration-response curve. As to `O=C(c1cncnc1)N1CCCN(c2ncnc3[nH]ccc23)CC12CC2` [Example 161, pyrimidin-5-yl-[5-(7H-pyrrolo[2,3-d]pyrimidin-4-yl)-5,9-diazaspiro[2.6]nonan-9-yl]methanone], the half-maximal effective concentration (EC50) at JAK1 is 0.1 to 1 µM; on JAK2, 0.1 to 1 µM; on JAK3, greater than 1 µM.
Turning to `N#Cc1ccccc1C(=O)N1CCCN(c2ncnc3[nH]ccc23)CC12CC2` [Example 162, 2-[5-(7H-pyrrolo[2,3-d]pyrimidin-4-yl)-5,9-diazaspiro[2.6]nonane-9-carbonyl]benzonitrile], the half-maximal effective concentration (EC50) was greater than 1 µM on JAK1, 0.1 to 1 µM on JAK2 and greater than 1 µM at JAK3.
As for `O=C(c1cccc(O)n1)N1CCN(c2ncnc3[nH]ccc23)CC2(CC2)C1` [Example 163, (6-hydroxy-2-pyridyl)-[5-(7H-pyrrolo[2,3-d]pyrimidin-4-yl)-5,8-diazaspiro[2.6]nonan-8-yl]methanone], the results for the EC50 on JAK1, at JAK2 and at JAK3 were 0.1 to 1 µM, 0.1 to 1 µM and greater than 1 µM, respectively.
Turning to `O=C(c1cccc(O)n1)N1CCCN(c2ncnc3[nH]ccc23)CC12CC2` [Example 164, (6-hydroxy-2-pyridyl)-[5-(7H-pyrrolo[2,3-d]pyrimidin-4-yl)-5,9-diazaspiro[2.6]nonan-9-yl]methanone], the 50% effective concentration (EC50) is 0.1 to 1 µM at JAK1, 0.1 to 1 µM at JAK2 and greater than 1 µM on JAK3.
On to `O=C(c1ccncn1)N1CCN(c2ncnc3[nH]ccc23)CC2(CC2)C1` [Example 165, pyrimidin-4-yl-[5-(7H-pyrrolo[2,3-d]pyrimidin-4-yl)-5,8-diazaspiro[2.6]nonan-8-yl]methanone], for which the EC50 at JAK1 is greater than 1 µM; on JAK2, 0.1 to 1 µM; on JAK3 it was greater than 1 µM.
Take `O=C(c1ccncn1)N1CCCN(c2ncnc3[nH]ccc23)CC12CC2` [Example 166, pyrimidin-4-yl-[5-(7H-pyrrolo[2,3-d]pyrimidin-4-yl)-5,9-diazaspiro[2.6]nonan-9-yl]methanone]: the EC50 at JAK1 is less than 0.1 µM; on JAK2, less than 0.1 µM; at JAK3, 0.1 to 1 µM.
With `O=C(Cc1ccccn1)N1CCN(c2ncnc3[nH]ccc23)CC2(CC2)C1` [Example 167, 2-(2-pyridyl)-1-[5-(7H-pyrrolo[2,3-d]pyrimidin-4-yl)-5,8-diazaspiro[2.6]nonan-8-yl]ethanone], the EC50 is 0.1 to 1 µM at JAK1, 0.1 to 1 µM at JAK2 and greater than 1 µM on JAK3.
On to `Cc1nccnc1C(=O)N1CCN(c2ncnc3[nH]ccc23)CC2(CC2)C1` [Example 168, (3-methylpyrazin-2-yl)-[5-(7H-pyrrolo[2,3-d]pyrimidin-4-yl)-5,8-diazaspiro[2.6]nonan-8-yl]methanone], for which the EC50 on JAK1, at JAK2 and at JAK3 was greater than 1 µM in each case.
With `Cc1cncc(C(=O)N2CCN(c3ncnc4[nH]ccc34)CC3(CC3)C2)n1` [Example 169, (6-methylpyrazin-2-yl)-[5-(7H-pyrrolo[2,3-d]pyrimidin-4-yl)-5,8-diazaspiro[2.6]nonan-8-yl]methanone], the EC50 on JAK1 is greater than 1 µM; at JAK2, 0.1 to 1 µM; at JAK3, greater than 1 µM.
Regarding `Cc1noc(C)c1C(=O)N1CCN(c2ncnc3[nH]ccc23)CC2(CC2)C1` [Example 170, (3,5-dimethylisoxazol-4-yl)-[5-(7H-pyrrolo[2,3-d]pyrimidin-4-yl)-5,8-diazaspiro[2.6]nonan-8-yl]methanone], the concentration giving a half-maximal response (EC50) on JAK1, on JAK2 and on JAK3 was greater than 1 µM in each case.
For `Cc1cc(C(=O)N2CCN(c3ncnc4[nH]ccc34)CC3(CC3)C2)ccn1` [Example 171, (2-methyl-4-pyridyl)-[5-(7H-pyrrolo[2,3-d]pyrimidin-4-yl)-5,8-diazaspiro[2.6]nonan-8-yl]methanone], the half-maximal effective concentration (EC50) on JAK1 is 0.1 to 1 µM; at JAK2, greater than 1 µM; on JAK3, greater than 1 µM.
With `Cc1cc(C(=O)N2CCCN(c3ncnc4[nH]ccc34)CC23CC3)ccn1` [Example 172, (2-methyl-4-pyridyl)-[5-(7H-pyrrolo[2,3-d]pyrimidin-4-yl)-5,9-diazaspiro[2.6]nonan-9-yl]methanone], the concentration for a half-maximal effect (EC50) on JAK1 is 0.1 to 1 µM; on JAK2 it was 0.1 to 1 µM; at JAK3, greater than 1 µM.
Turning to `O=C(Cc1ccccc1Cl)N1CCN(c2ncnc3[nH]ccc23)CC2(CC2)C1` [Example 173, 2-(2-chlorophenyl)-1-[5-(7H-pyrrolo[2,3-d]pyrimidin-4-yl)-5,8-diazaspiro[2.6]nonan-8-yl]ethanone], the concentration giving a half-maximal response (EC50) at JAK1 is 0.1 to 1 µM; on JAK2, less than 0.1 µM; on JAK3, 0.1 to 1 µM.
Take `O=C(Cc1ccccc1Cl)N1CCCN(c2ncnc3[nH]ccc23)CC12CC2` [Example 174, 2-(2-chlorophenyl)-1-[5-(7H-pyrrolo[2,3-d]pyrimidin-4-yl)-5,9-diazaspiro[2.6]nonan-9-yl]ethanone]: the half-maximal effective concentration (EC50) on JAK1 is 0.1 to 1 µM; on JAK2 it was 0.1 to 1 µM; at JAK3 it was greater than 1 µM.
For `Cc1cc(C(=O)N2CCN(c3ncnc4[nH]ccc34)CC3(CC3)C2)no1` [Example 175, (5-methylisoxazol-3-yl)-[5-(7H-pyrrolo[2,3-d]pyrimidin-4-yl)-5,8-diazaspiro[2.6]nonan-8-yl]methanone], the EC50 on JAK1, at JAK2 and at JAK3 was 0.1 to 1 µM each time.
With `O=C(c1ccc(Cl)cc1)N1CCN(c2ncnc3[nH]ccc23)CC2(CC2)C1` [Example 176, (4-chlorophenyl)-[5-(7H-pyrrolo[2,3-d]pyrimidin-4-yl)-5,8-diazaspiro[2.6]nonan-8-yl]methanone], the 50% effective concentration (EC50) on JAK1 is 0.1 to 1 µM; at JAK2 it was less than 0.1 µM; on JAK3, 0.1 to 1 µM.
Regarding `O=C(c1ccno1)N1CCN(c2ncnc3[nH]ccc23)CC2(CC2)C1` [Example 177, isoxazol-5-yl-[5-(7H-pyrrolo[2,3-d]pyrimidin-4-yl)-5,8-diazaspiro[2.6]nonan-8-yl]methanone], the EC50 on JAK1, on JAK2 and on JAK3 was 0.1 to 1 µM throughout.
Take `O=C(c1ccccc1Cl)N1CCCN(c2ncnc3[nH]ccc23)CC12CC2` [Example 178, (2-chlorophenyl)-[5-(7H-pyrrolo[2,3-d]pyrimidin-4-yl)-5,9-diazaspiro[2.6]nonan-9-yl]methanone]: the half-maximal effective concentration (EC50) on JAK1 was 0.1 to 1 µM; on JAK2, 0.1 to 1 µM; at JAK3 it was greater than 1 µM.
As to `O=C(c1cccc(Cl)c1)N1CCCN(c2ncnc3[nH]ccc23)CC12CC2` [Example 179, (3-chlorophenyl)-[5-(7H-pyrrolo[2,3-d]pyrimidin-4-yl)-5,9-diazaspiro[2.6]nonan-9-yl]methanone], the 50% effective concentration (EC50) is 0.1 to 1 µM at JAK1, less than 0.1 µM at JAK2 and 0.1 to 1 µM at JAK3.
Take `O=C(c1ccc(Cl)cc1)N1CCCN(c2ncnc3[nH]ccc23)CC12CC2` [Example 180, (4-chlorophenyl)-[5-(7H-pyrrolo[2,3-d]pyrimidin-4-yl)-5,9-diazaspiro[2.6]nonan-9-yl]methanone]: the EC50 is less than 0.1 µM at JAK1, less than 0.1 µM on JAK2 and 0.1 to 1 µM on JAK3.
As for `O=C(c1ccno1)N1CCCN(c2ncnc3[nH]ccc23)CC12CC2` [Example 181, isoxazol-5-yl-[5-(7H-pyrrolo[2,3-d]pyrimidin-4-yl)-5,9-diazaspiro[2.6]nonan-9-yl]methanone], the 50% effective concentration (EC50) on JAK1 is less than 0.1 µM; on JAK2 it was less than 0.1 µM; on JAK3 it was 0.1 to 1 µM.
In the case of `O=C(c1cc[nH]n1)N1CCN(c2ncnc3[nH]ccc23)CC2(CC2)C1` [Example 182, 1H-pyrazol-3-yl-[5-(7H-pyrrolo[2,3-d]pyrimidin-4-yl)-5,8-diazaspiro[2.6]nonan-8-yl]methanone], the 50% effective concentration (EC50) on JAK1, at JAK2 and on JAK3 was 0.1 to 1 µM each time.
As to `O=C(c1cc[nH]n1)N1CCCN(c2ncnc3[nH]ccc23)CC12CC2` [Example 183, 1H-pyrazol-3-yl-[5-(7H-pyrrolo[2,3-d]pyrimidin-4-yl)-5,9-diazaspiro[2.6]nonan-9-yl]methanone], the concentration giving a half-maximal response (EC50) at JAK1, on JAK2 and at JAK3 was 0.1 to 1 µM in each case.
As for `Cc1cc(CC(=O)N2CCN(c3ncnc4[nH]ccc34)CC3(CC3)C2)on1` [Example 184, 2-(3-methylisoxazol-5-yl)-1-[5-(7H-pyrrolo[2,3-d]pyrimidin-4-yl)-5,8-diazaspiro[2.6]nonan-8-yl]ethanone], the concentration for a half-maximal effect (EC50) was less than 0.1 µM on JAK1, less than 0.1 µM on JAK2 and 0.1 to 1 µM on JAK3.
`O=C(c1ccccc1Cl)N1CCN(c2ncnc3[nH]ccc23)CC2(CC2)C1` [Example 185, (2-chlorophenyl)-[5-(7H-pyrrolo[2,3-d]pyrimidin-4-yl)-5,8-diazaspiro[2.6]nonan-8-yl]methanone]: the EC50 on JAK1 is 0.1 to 1 µM; on JAK2, 0.1 to 1 µM; on JAK3 it was greater than 1 µM.
As for `O=C(c1cccc(Cl)c1)N1CCN(c2ncnc3[nH]ccc23)CC2(CC2)C1` [Example 186, (3-chlorophenyl)-[5-(7H-pyrrolo[2,3-d]pyrimidin-4-yl)-5,8-diazaspiro[2.6]nonan-8-yl]methanone], the EC50 on JAK1 was 0.1 to 1 µM; at JAK2, 0.1 to 1 µM; at JAK3, greater than 1 µM.
